Source: US20210332139A1, “MODULATION OF LEUKOCYTE ACTIVITY IN TREATMENT OF NEUROINFLAMMATORY DEGENERATIVE DISEASE” (Leuvas Therapeutics, priority 2013, published 2021)
“And” between values parts separate entries of the source, which are not always exact repeats. Equal entries are not always repeated.

Legend:
Type in all cases: cell-based
[1] = test system: mouse neutrophils; experiment: Isoluminol chemiluminescence ROS assay, mouse neutrophils; settings: mean+/−SD
Procedure: (§1) Isoluminol-based chemiluminescence assays were performed in HGCa in the presence of horseradish peroxidase (HRP) and isoluminol (both from Sigma-Aldrich) in a temperature-controlled Multilabel Count Victor X5 (Perkin Elmer). Assays were run in dark 96 well plates precoated with 250 μg/ml human fibrinogen in HGCa containing (final concentration): 100 μM isoluminol and 8 U/ml HRP. After addition of 1×10^5 human neutrophils or 7.5×10^5 mouse neutrophils, plates were left at 37° C. for 5-10 min and the reaction started by addition of the stimulus. Light emission was recorded every minute.
(§2) We used the chemotactic peptide fMLP as positive control. […] Data are mean+/−SD for three independent experiments.
Data are mean+/−SD counts per second.

[2] = test system: human neutrophils; experiment: Isoluminol chemiluminescence ROS assay, human neutrophils; settings: human neutrophils on fibrinogen, mean+/−SD
Procedure: One of the mechanisms of neuronal damage by beta-amyloid in Alzheimer's disease is the generation of reactive oxygen species (ROS). We determined whether Aβ1-42 oligomers induce ROS production in neutrophils by using a chemiluminescence assay.
as §1, §2

[3] = test system: neutrophils; experiment: Rapid adhesion of neutrophils, soluble versus fibrillary Aβ1-42; settings: fMLP, concentration not given, mean+/−SD
Source text: Although two-times less efficient than the soluble form, fibrillary Aβ triggered a significant increase of rapid neutrophil adhesion on both ICAM-1 and fibrinogen (Table 8; data are expressed as the mean+/−SD of bound cells in 0.2 mm^2 from three independent experiments made in duplicate).

[4] = test system: mouse neutrophils; experiment: Rapid adhesion of mouse neutrophils to fibrinogen and ICAM-1; settings: fMLP 1 μM, mean+/−SD
Source text: (§3) All data are expressed as the mean+/−SD of bound cells in 0.2 mm^2 from three independent experiments made in duplicate.

[5] = test system: LFA-1; experiment: LFA-1 affinity state in human neutrophils (conformer-specific antibodies, cytofluorimetry); settings: 0.1 μM, 10 s, mean fluorescence intensity, ctrl = 1
Source text: Neutrophil arrest is rapidly triggered by chemokines or other chemoattractants and is mediated by the binding of LFA-1 integrin to its vascular ligand ICAM-1. Ligation of specific heterotrimeric GPCRs by chemokines induces integrins to undergo a dramatic transition from a bent low-affinity conformation to extended intermediate- and high-affinity conformations, which leads to opening of the ligand-binding pocket. We hypothesized that Aβ may trigger intermediate and/or high affinity state of LFA-1 integrin and studied the effect of Aβ1-42 oligomers on human LFA-1 affinity using KIM127 and 327A conformer-specific antibodies for intermediate- and high-affinity state respectively.
The cells were stimulated for 10 s with 0.5 μmol/L of CXCL12, 0.1 μM fMLP, 20 μM Aβ1-42, or 20 μM Aβ42-1 under stirring at 37° C. After rapid washing, cells were stained with FITC-conjugated secondary polyclonal antibody and analyzed by cytofluorimetric quantification. Data are mean fluorescence intensity +/−SD from three independent experiments.

[6] = test system: human neutrophils; experiment: Rapid human neutrophil adhesion to ICAM-1, inhibition by bocMLF and PTx; settings: 0.1 μM fMLP
Procedure: It is known that one of the receptors for Aβ is the receptor for fMLP, formylpeptide chemotactic receptor (FPR). To evaluate the contribution of this GPCR receptor on Aβ-dependent neutrophil adhesion, we inhibited its function using boc-MLF, a formyl-peptide chemotactic receptor antagonist. Human neutrophils were incubated for 2 minutes with buffer (control) or with oligomeric Aβ. 0.1 μM fMLP was used as a positive control. Values are expressed as the mean counts of bound cells in 0.2 mm^2 from three independent experiments in duplicate. Error bars represent SD. […] To exclude the possibility that rapid adhesion triggering was a consequence of a generic plasma membrane alteration due to the lipophilic nature of Aβ, we evaluated rapid adhesion in lymphocytes, which are known to lack fMLP receptors.

[7] = test system: human neutrophils; experiment: Rapid adhesion of human neutrophils to fibrinogen and ICAM-1; settings: 0.1 μM, mean+/−SD
Source text: as §3

[8] = test system: human primary PMNs; experiment: Static adhesion of human primary PMNs to ICAM-1 with signaling inhibitors; settings: 50 nM fMLP, 1 min
Procedure: As a model system, human primary PMNs were isolated form healthy donors stimulated to very rapid adhesion to purified human ICAM-1, ligand for the β2 integrins LFA-1 and Maci. fMLP (the classical chemoattractant) was the positive control. […] PMNs were treated for 30 min. with different concentrations of inhibitors followed by stimulation for 1 min with 50 nM fMLP or with 10 μM Aβ. The number of adherent cells was quantified by computer-assisted evaluation. Statistical analysis was SD.

fMLP
ROS generation (chemiluminescence) ([1]; 1 min): 599 ± 199 counts per second
ROS generation (chemiluminescence) ([1]; 2 min): 231 ± 91 counts per second
ROS generation (chemiluminescence) ([1]; 3 min): 90 ± 17 counts per second
ROS generation (chemiluminescence) ([1]; 4 min): 65 ± 36 counts per second
ROS generation (chemiluminescence) ([1]; 5 min): 59 ± 54 counts per second
ROS generation (chemiluminescence) ([2]; 1 min): 908 ± 137
ROS generation (chemiluminescence) ([2]; 2 min): 783 ± 108
ROS generation (chemiluminescence) ([2]; 3 min): 515 ± 103
ROS generation (chemiluminescence) ([2]; 4 min): 325 ± 158
ROS generation (chemiluminescence) ([2]; 5 min): 272 ± 134
Rapid adhesion to Fibrinogen [3]: 285.5 ± 14.6 bound cells in 0.2 mm^2
Rapid adhesion to ICAM-1 [3]: 578.5 ± 66.5 bound cells in 0.2 mm^2
Rapid adhesion to Fibrinogen [4]: 72.40 ± 14.33 bound cells in 0.2 mm^2
Rapid adhesion to ICAM-1 [4]: 183.6 ± 23.9 bound cells in 0.2 mm^2
327A (high-affinity state of LFA-1) [5]: 4.35 ± 0.63
KIM127 (intermediate-affinity state of LFA-1) [5]: 2.94 ± 0.21
Neutrophil adhesion to ICAM-1, stimulus alone (Ctrl, no inhibitor) [6]: 497.1 ± 33.3 bound cells in 0.2 mm^2 and 484.1 ± 39.7 bound cells in 0.2 mm^2
Rapid adhesion to Fibrinogen [7]: 361.5 ± 88.2 bound cells in 0.2 mm^2
Rapid adhesion to ICAM-1 [7]: 203.8 ± 29.2 bound cells in 0.2 mm^2
Adherent hPMNs to ICAM-1, fMLP, Mean, Control (no inhibitor) [8]: 444.6 and 500.8 and 433.5 and 463.1 and 484.1 and 486.8
